Data reported in patent US10870670B2, “Preparation of (S,S)-secoisolariciresinol diglucoside and (R,R)-secoisolariciresinol diglucoside” (The Trustees of the University of Pennsylvania, priority 2013, dated 2020).

Experiments:
Assay type in all cases: biochemical
[1] = DPPH radical scavenging assay; settings: for EC50: regression lines over 5-100 μM, 250 μM DPPH, Tris buffer pH 7.4, 20 min, n=3, read-out: DPPH free radical scavenging activity EC50
Method: The ability of the SDGs to scavenge DPPH radicals was assessed as described by Moree et al. (Free Rad. Anitox. 2011, 1, 31) with minor modifications for use in microplates. Briefly, different concentrations of SDG isomers and other test compounds were incubated with 200 μL medium in 96-well microplates containing 0.1 M Tris buffer (pH 7.4) and 250 μM DPPH solution, and kept in the dark for 20 min. The absorbance was read at 517 nm in a Bio-Rad microplate reader. Ascorbic acid and α-tocopherol were used as known antioxidants for comparison. The radical scavenging activity was measured as a decrease in the absorbance of DPPH and calculated using the following equation: Percentage inhibition=[O.D.control−O.D.treated/O.D.control]×100.
The free radical scavenging activities of synthetic (S,S)-SDG-1 and (R,R)-SDG-2 were determined using a 2,2-diphenyl-1-pierylhydrazyl (DPPH) free radical scavenging assay and was compared to those of natural (S,S)-SDG-1, ascorbic acid, and α-tocopherol (FIG. 4). […] Establishing regression lines for the potentials at low- and mid-concentration ranges (5-100 μM) allowed the free radical EC50 scavenging activity of these compounds to be determined.

[2] = Hydroxyl radical scavenging potential (HORAC assay); settings: for Antioxidant capacity Against Hydroxyl Radicals (GAE): HORAC assay, Fenton reaction, gallic acid equivalent, mean±SD, n=3; for Inhibition of fluorescein oxidation by hydroxyl radicals relative to gallic acid: HORAC, gallic acid standard, concentration-dependent
Method: The ability of SDGs to scavenge hydroxyl radicals in a chemical system was evaluated using HORAC Assay kit (# TA30) obtained from Oxford Biomedical Research. Hydroxyl radicals were generated from hydrogen peroxide by Fenton reaction. Oxidation of fluorescein was measured on a fluorescence microplate reader. Antioxidants inhibit fluorescein oxidation. Gallic acid was used as a standard for calibration curve. Calculations used SDG concentration that fit the linear part of the calibration curve. SDG concentrations were used in the range of […]. Antioxidant capacity against hydroxyl radicals was expressed as gallic acid equivalent (GAE).
(§1) The ability of synthetic (S,S)-SDG-1 and (R,R)-SDG-2 to scavenge hydroxyl and peroxyl radicals as manifested by their inhibition of the oxidation of fluorescein was assessed by the hydroxyl radical averting capacity (HORAC, gallic acid standard) and peroxyl radical absorbance capacity assays (ORAC, trolox standard), respectively (Table 1). […] However, synthetic (S,S)-SDG-1 activity differed from natural (S,S)-SDG-1, likely due to trace impurities.
(§2) In Table 1, hydroxyl radicals were generated from hydrogen peroxide by Fenton reaction. Peroxyl radicals were generated by AAPH (2,2′-azobis(2-amidinopropane) dihydrochloride). Oxidation of fluorescein was measured. Calculations used SDG concentrations that fitted the linear part of the calibration curve. The results are presented as mean±standard deviation (n=3).

[3] = Reducing power activity assay (ferricyanide reduction, absorbance at 700 nm); settings: regression line over 1-100 μM; sodium phosphate buffer pH 6.6; n=3; read-out: EC50 for reducing power (mean±std. dev.)
Method: The determination of reducing power was performed as described by Yen and Der (J. Am. Oil Chem. Soc. 1993, 70, 383). Reducing power assay determines the reducing potential of the test compound which reacts with potassium ferricyanide (Fe^+3) to form potassium ferrocyanide (Fe^+2), which subsequently reacts with ferric chloride to produce a ferric-ferrous complex that has maximum absorption at 700 nm. Various concentrations (1-500 μM) of test compounds were taken in sodium phosphate buffer (0.1 M, pH 6.6) in 96-well microplates and mixed with potassium ferricyanide (1%). Samples were incubated at 50° C. and equal volume of 10% trichloroacetic acid was added. The upper layer was mixed with deionized water (1:1:2) and ferric chloride (0.1%). The absorbance was read at 700 nm on a Bio-Rad microplate reader (Bio-Rad, Hercules, Calif.). The increase in absorbance indicates increase in reducing power.
The reducing powers of synthetic (S,S)-SDG-1, synthetic (R,R)-SDG-2, natural (S,S)-SDG-1, ascorbic acid, and α-tocopherol were determined by the reduction of K3FeCN6 in the presence of FeCl3, as measured by the absorbance of the resulting ferric-ferrous complex (FIG. 2). […] This allowed the half maximal effective concentration (EC50) for reducing power to be calculated (FIG. 3).

[4] = Peroxyl radical scavenging potential (ORAC assay); settings: for Antioxidant capacity Against Peroxyl Radicals (TE): ORAC assay, AAPH-generated radicals, Trolox equivalents, mean±SD, n=3; for Inhibition of fluorescein oxidation by peroxyl radicals relative to trolox: ORAC, trolox standard, AAPH
Method: The ability of SDGs to scavenge peroxyl radicals in a chemical system was evaluated using an ORAC assay kit (# STA345) obtained from Cell Biolab (San Diego, Calif.). Peroxyl radicals were generated by AAPH (2,2′-azobis(2-amidinopropanedihydrochloride). Oxidation of fluorescein was measured using a fluorescence microplate reader. Antioxidants inhibit fluorescein oxidation. Trolox was used as a standard for calibration curve. Calculations used SDG concentrations that fit the linear part of the calibration curve. SDG concentrations were used in the range of 8 μM-1 mM. Antioxidant capacity against peroxyl radicals was expressed as Trolox equivalent (TE).
as §1, §2

Row | Compound | DPPH inhibition at higher concentrations ([1]; 250-500 μM) | EC50 [1] [µM] | Antioxidant capacity Against Hydroxyl Radicals (GAE) [2] [GAE] | Inhibition of fluorescein oxidation by hydroxyl radicals relative to gallic acid [2] | EC50 [3] [µM] | Antioxidant capacity Against Peroxyl Radicals (TE) [4] [TE] | Inhibition of fluorescein oxidation by peroxyl radicals relative to trolox [4]
1 | COc1cc(C[C@H](CO[C@@H]2O[C@H](CO)[C@@H](O)[C@H](O)[C@H]2O)[C@@H](CO[C@@H]2O[C@H](CO)[C@@H](O)[C@H](O)[C@H]2O)Cc2ccc(O)c(OC)c2)ccc1O [synthetic (S,S)-SDG-1, (S,S)-secoisolariciresinol diglucoside] | significantly lower than those exerted by (R,R)-SDG-2 and natural (S,S)-SDG-1 | 158 ± 21.3 | 2.09 ± 0.16 | two-fold higher than gallic acid | 292 ± 27.7 | 3.03 ± 0.04 | two-fold increase in potency over the trolox standard
2 | COc1cc(C[C@@H](CO[C@@H]2O[C@H](CO)[C@@H](O)[C@H](O)[C@H]2O)[C@H](CO[C@@H]2O[C@H](CO)[C@@H](O)[C@H](O)[C@H]2O)Cc2ccc(O)c(OC)c2)ccc1O [synthetic (R,R)-SDG-2, (R,R)-secoisolariciresinol diglucoside] |  | 124 ± 8.67 | 1.96 ± 0.27 | two-fold higher than gallic acid | 332 ± 21.2 | 2.20 ± 0.10 | two-fold increase in potency over the trolox standard
3 | COc1cc(C[C@H](CO[C@@H]2O[C@H](CO)[C@@H](O)[C@H](O)[C@H]2O)[C@@H](CO[C@@H]2O[C@H](CO)[C@@H](O)[C@H](O)[C@H]2O)Cc2ccc(O)c(OC)c2)ccc1O [natural (S,S)-SDG-1, (S,S)-secoisolariciresinol diglucoside] |  | 83.9 ± 2.8 | 3.68 ± 0.27 |  | 275 ± 13.2 | 2.55 ± 0.11 | two-fold increase in potency over the trolox standard
4 | Cc1c(C)c2c(c(C)c1O)CC[C@@](C)(CCC[C@H](C)CCC[C@H](C)CCCC(C)C)O2 [α-tocopherol, reference compound] |  | 133 ± 12.6 |  |  | 945 ± 148 |  | 
5 | O=C1O[C@H]([C@@H](O)CO)C(O)=C1O [ascorbic acid, reference compound] |  | 440 ± 11.8 |  |  | 1130 ± 88.8 |  | 
